This note sets out measurements from patent US11261189B2, “Substituted 2,4 diamino-quinoline as new medicament for fibrosis, autophagy and cathepsins B (CTSB), L (CTSL) and D (CTSD) related diseases” (Genoscience Pharma, priority 2018, dated 2022).

The target in one experiment is T1, cathepsin B (CTSB) (Homo sapiens, UniProt P07858).
T1 construct: endogenous in cells; host or cells: HepG2
The experiment can be described thus: Cathepsin B (CTSB) catalytic activity in lysates of treated HepG2 cells (Z-RR-AMC substrate). Type of experiment: cell-based. Particulars: HepG2; 7.5 μM, 6 hours and 24 hours. As to the method:
(§1) Lysosomal functions was investigated in a hepatocellular carcinoma (HCC) cell line HepG2 after 6 hours and 24 hours of treatment with compound 2-3 (the hydrochloride salt form of compound 2-2) using functional assays of some lysosomal enzymes activity: two cysteine proteinases: cathepsin B (CTSB) and cathepsin L (CTSL), and one aspartic proteinase: cathepsin D (CTSD). Two sets of three concentrations of compound 2-3 (1 μM, 2 μM, and 4 μM for 6 hours, and 0.5 μM, 1 μM and 2 μM for 24 hours) were tested at least in triplicate and four independent experiments were performed. Salinomycin (7.5 μM for 6 hours and 24 hours) was used as a positive control.
(§2) The HepG2 cell line was maintained in DMEM (Dulbecco's Modified Eagle Media) high glucose (Cat #L0103-500, Dutscher) containing 1% penicillin-streptomycin (Cat #P06-07100, Dutscher) and 10% FBS (Fetal Bovine Serum) (Cat #11543407, Life Technologies). Cells were cultured at 37° C. with 5% CO2.
(§3) The day before the experiment, 6-well plates (Cat #353046, Dutscher) with 250,000 cells in 2.7 mL of medium per well were prepared.
(§4) Compound 2-3 was dissolved with filtrated H2O mQ to make a 10 mM stock solution and serial working solutions (10× solutions) were prepared with the diluent (=culture medium with 0.4% H2O mQ) at 5 μM, 10 μM, 20 μM and 40 μM: the “dilution 1” is made from the 10 mM stock solution in the culture medium and the following serial dilutions were made in the diluent to maintain a constant percentage of H2O.
(§5) Salinomycin [CAS 53003-10-4] was used as positive control and was dissolved with methanol to make a 10 mM stock solution and a 10× solution at 75 μM was prepared with the culture medium.
(§6) 300 μL of compound 2-3 10× solutions (solutions at 10 μM, 20 μM and 40 μM for 6 hours of treatment and solutions at 5 μM, 10 μM and 20 μM for 24 hours of treatment) or 300 μL of diluent (=non-treated (NT) condition) or 300 μL of Salinomycin 10× solution were dispensed in the appropriate wells (4 wells/condition). After cells treatment, 6-well plates were returned to incubator for 6 hours or 24 hours.
(§7) After 6 hours or 24 hours of cells treatment, the medium was removed from each well. The cells were carefully rinsed with PBS (phosphate-buffered saline, Cat #L0615-500, Dutscher) and detached with 500 μL per well of a trypsin solution. After 5 min of trypsin (Cat #L0930-100, Dutscher) incubation at 37° C., 800 μL of medium was added per well and transferred to a 1.5 mL tube. Then, 800 μL of PBS was used to rinse each well and the corresponding solution was pooled in each corresponding 1.5 mL tube. […] Total protein concentration was assessed using the Bradford reagent (Cat #B6916-500ML, Sigma-Aldrich) and cellular lysates were stored at −80° C. until catalytic activity measurement. […]

The subject of experiment [1] is cathepsins B and L (CTSB/L). The experiment can be described thus: Overall cathepsins B and L (CTSB/L) peptidase activity in lysates of treated HepG2 cells (Z-FR-AMC substrate). The following applies: HepG2; 7.5 μM, 6 hours and 24 hours. Type of experiment: cell-based. On the procedure:
as §1, §2, §3, §4, §5, §6, §7

In the next experiment the target is T2, cathepsin D (CTSD) (Homo sapiens, UniProt P07339).
T2 construct: cell lysates (1 μg of total proteins) were pre-incubated with citrate buffer pH 4.0; endogenous in cells; host or cells: HepG2
T2 sequence (P07339 65-412): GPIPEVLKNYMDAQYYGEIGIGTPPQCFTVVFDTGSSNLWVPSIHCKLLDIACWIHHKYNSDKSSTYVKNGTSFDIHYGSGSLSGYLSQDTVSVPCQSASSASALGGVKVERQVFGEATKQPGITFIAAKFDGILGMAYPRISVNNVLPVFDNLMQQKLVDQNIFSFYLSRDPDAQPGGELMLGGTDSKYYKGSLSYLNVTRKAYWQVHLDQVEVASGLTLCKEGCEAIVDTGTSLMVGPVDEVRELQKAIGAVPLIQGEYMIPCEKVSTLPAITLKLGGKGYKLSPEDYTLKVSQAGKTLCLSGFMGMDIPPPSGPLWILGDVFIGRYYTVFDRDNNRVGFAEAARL
Nature of the experiment: Cathepsin D (CTSD) peptidase activity in lysates of treated HepG2 cells (MOCAc quenched fluorogenic substrate). Format: cell-based. The following applies: HepG2; 7.5 μM, 6 hours and 24 hours. On the procedure: as §1, §2, §3, §4
Salinomycin [CAS 53003-10-4] was used as positive control and was dissolved with methanol to make a 10 mM stock solution and a 10× solution at 75 μM was prepared with the culture medium. […]
After 6 hours or 24 hours of cells treatment, the medium was removed from each well. […] Total protein concentration was assessed using the Bradford reagent (Cat #B6916-500ML, Sigma-Aldrich) and cellular lysates were stored at −80° C. until catalytic activity measurement. […]

The test system of experiment [2] is diethyl nitrosamine (DEN) cirrhotic rat model of liver fibrosis. Nature of the experiment: DEN induced cirrhosis in rats, study 2: Sirius red quantification of liver fibrosis. Type of experiment: in vivo. Particulars: group 4 (20/15): 20 mg/kg/day p.o. 4 weeks then 15 mg/kg/day 3 weeks; p=0.03. As to the method: A second in vivo experiment, with the same diethyl nitrosamine (DEN) cirrhotic rat animal model of liver fibrosis, was performed including compound 2-2 (base form of compound 2-3) with discontinued oral dosing schedule and compound 5-3 with daily oral exposure. Compounds 2-2 and 5-3 were administered p.o. by gavage (oral gavage) once daily during 7 weeks.
Rats were treated with DEN for 13 weeks (intra-peritoneal injections (i.p.) of 50 mg/kg/week) and then treated according to the Table 10 dosage schedule during 7 weeks. At the end of the study, all animals were sacrificed using CO2 and rat livers were collected for analysis. The quantification of the liver fibrotic tissue was evaluated by Sirius red staining of rat liver sections.
Group 1 contained 6 animals which were daily dosed (q.d.) by oral gavage (per os, p.o.) with the vehicle during 7 weeks.
Group 2 contained 8 animals and the corresponding animals were daily dosed (q.d.) by oral gavage (per os, p.o.) with compound 2-2 during 4 weeks at 20 mg/kg/day and then during 3 weeks at 20 mg/kg every 2 days (q.o.d.: quaque altera die, one day treated, on day untreated).
Group 3 contained 8 animals and the corresponding animals were daily dosed (q.d.) by oral gavage (per os, p.o.) with compound 2-2 during 3 weeks at 20 mg/kg/day, then 2 weeks of treatment free period, and were then daily dosed (q.d.) by oral gavage (per os, p.o.) with compound 2-2 during 2 weeks at 20 mg/kg/day.
Group 4 contained 8 animals and the corresponding animals were daily dosed (q.d.) by oral gavage (per os, p.o.) with compound 5-3 during 4 weeks at 20 mg/kg/day, and were then daily dosed (q.d.) by oral gavage (per os, p.o.) with compound 5-3 during 3 weeks at 15 mg/kg/day.
Compound 2-2 and 5-3 were formulated in water for injection acidified with hydrochloric acid to pH 4.

For experiment [3] the test system is unchanged. Nature of the experiment: DEN induced cirrhosis in rats, study 1: Sirius red quantification of liver fibrosis. Particulars: group 2: Sorafenib 10 mg/kg/day p.o. q.d., 6 weeks after 14 weeks DEN. Format: in vivo. An excerpt:
This animal model allows developing an extensive liver fibrosis, leading to a compensated liver cirrhosis with a multifocal hepatocarcinoma (HCC) after 14 weeks of induction (Schiffer, E. et al. Hepatology 2005 (41), 307-314). The DEN cirrhotic rat animal model was used here as a specific animal model of liver fibrosis.
Forty two Fisher 344 male rat (obtained from Charles River Laboratories France, including spare animals), weighting approximately 280 g at the start of the study, were randomized in 5 groups of 8 (groups 1, 2, 3 and 5) or 6 (group 4) animals and housed with 3 animals per cage, given free access to food and water and allowed to acclimate for at least 5 days prior to test initiation.
The DEN cirrhotic rat model was obtained after 14 weekly intraperitoneal injections of DEN (intra-peritoneal injections (i.p.) of DEN at 50 mg/kg/week). The animals were then treated according to Table 9 during 6 weeks. In this in vivo experiment, the anti-fibrotic activity of compound 2-3 was evaluated in liver fibrosis animal model, alone or in combination with Sorafenib (a multikinase inhibitor of Raf-1, B-Raf, VEGFR-2, VEGFR3, PDGFRβ, Flt3 and c-Kit). After 6 weeks of treatment, all animals were sacrificed using CO2 and rat livers were collected for analysis. The quantification of the liver fibrotic tissue was evaluated by Sirius red staining of rat liver sections.
Group 1 contained 8 animals which were daily dosed (q.d.) by oral gavage (per os, p.o.) with the vehicle during 6 weeks.
Group 2 contained 8 animals which were daily dosed (q.d.) by oral gavage (per os, p.o.) with Sorafenib at 10 mg/kg/day during 6 weeks.
Group 3 contained 8 animals which were daily dosed (q.d.) by oral gavage (per os, p.o.) with compound 2-3 at 15 mg/kg/day during 6 weeks.
Group 4 contained 6 animals which were daily dosed (q.d.) by oral gavage (per os, p.o.) with compound 2-3 at 15 mg/kg/day in combination with Sorafenib at 10 mg/kg/day during 6 weeks.
Group 5 contained 8 animals which were daily dosed (q.d.) by oral gavage (per os, p.o.) with compound 2-3 at 30 mg/kg/day during 6 weeks. […]

Regarding `CC[C@@H](C(=O)[C@@H](C)[C@@H](O)[C@H](C)[C@@H]1O[C@@H]([C@@H](CC)C(=O)O)CC[C@@H]1C)[C@H]1O[C@]2(C=C[C@@H](O)[C@]3(CC[C@@](C)([C@H]4CC[C@](O)(CC)[C@H](C)O4)O3)O2)[C@H](C)C[C@@H]1C` [Salynomycin, Salinomycin, reference compound], at cathepsin B (CTSB), the “proteolytic activity of cathepsin B (positive control)” value is listed as “significantly decreased”. The “proteolytic activity of cathepsins B/L (positive control)” value in experiment [1] is on record as “significantly decreased”. Further, the “proteolytic activity of cathepsin D (positive control)” value at cathepsin D (CTSD) is given as “significantly decreased”.

`CC(C)(C)NC1CCN(c2cc(NCc3ccc(F)cc3)nc3ccccc23)CC1` [5-3, 2-(4-fluorobenzylamino)-4-(4-tert-butylaminopiperidin-1-yl)-quinoline]: the “reduction of the level of collagen fibers deposition (Sirius red) compared to the control group” value in experiment [2] is 24%.

Consider `CNC(=O)c1cc(Oc2ccc(NC(=O)Nc3ccc(Cl)c(C(F)(F)F)c3)cc2)ccn1` [Sorafenib, reference compound], for which the “reduction of the level of collagen fibers deposition (Sirius red) compared to the control group” value in experiment [3] turned out to be 13.6%.
